This is an account of results in patent publication US9604982B2, “P2X7 modulators” (Janssen Pharmaceutica NV, priority 2013, dated 2017).

Where two headings read alike, the source gives them in different places.

This experiment has as its target P2X7 (Homo sapiens (Human), UniProt Q99572). The experiment is described as follows: P2X7 antagonism in human peripheral blood mononuclear cells (PBMCs), IL-1β release after LPS + Bz-ATP (ELISA). Format: cell-based. The conditions noted are these: 0.5 mM Bz-ATP; for remaining activity at 10 µM: read-out: PBMC 10 μM (% control); for PBMC 10 μM (% control): Table 3 (additional runs). The procedure:
Human blood was collected using a blood donor program. […] Cells were incubated for an additional 1.5 hours. […] Data are analyzed and graphed on Graphpad Prism 5. […] The IC50 for each compound is then uploaded into 3DX.
On the technique in general: ELISA stands for enzyme-linked immunosorbent assay.

Chain of P2X7 (Q99572 whole entry): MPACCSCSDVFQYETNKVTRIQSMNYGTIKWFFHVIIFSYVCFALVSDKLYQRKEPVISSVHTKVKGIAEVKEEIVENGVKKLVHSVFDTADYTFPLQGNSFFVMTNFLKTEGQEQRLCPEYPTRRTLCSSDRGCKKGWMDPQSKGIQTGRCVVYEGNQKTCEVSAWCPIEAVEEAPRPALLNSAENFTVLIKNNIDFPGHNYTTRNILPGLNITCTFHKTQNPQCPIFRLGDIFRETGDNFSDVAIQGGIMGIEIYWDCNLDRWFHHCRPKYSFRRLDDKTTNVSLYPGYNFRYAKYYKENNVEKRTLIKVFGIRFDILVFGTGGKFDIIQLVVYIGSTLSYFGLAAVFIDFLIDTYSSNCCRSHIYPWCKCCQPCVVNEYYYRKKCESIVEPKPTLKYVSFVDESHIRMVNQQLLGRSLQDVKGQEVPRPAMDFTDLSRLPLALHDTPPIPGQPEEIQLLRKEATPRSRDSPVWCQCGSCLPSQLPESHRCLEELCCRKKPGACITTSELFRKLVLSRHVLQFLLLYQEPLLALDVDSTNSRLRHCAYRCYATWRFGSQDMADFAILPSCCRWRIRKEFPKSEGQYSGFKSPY

Consider `CC(C)c1nc2c(c(-c3ccn[nH]3)n1)C[C@@H](C)N(C(=O)c1cccc(C(F)(F)F)c1Cl)C2` (single isomer, unassigned) [Example 102, (R*)-(2-chloro-3-(trifluoromethyl)phenyl)(2-isopropyl-6-methyl-4-(1H-pyrazol-5-yl)-5,6-dihydropyrido[3,4-d]pyrimidin-7(8H)-yl)methanone], for which the remaining activity at 10 µM (P2X7, Table 2, 10 μM compound) came to 11.7%.
As for `Cc1nc2c(c(-c3ccn[nH]3)n1)C[C@@H](C)N(C(=O)c1cccc(C(F)(F)F)c1Cl)C2` (single isomer, unassigned) [Example 58, (6R*)-7-{[2-Chloro-3-(trifluoromethyl)phenyl]carbonyl}-2,6-dimethyl-4-(1H-pyrazol-5-yl)-5,6,7,8-tetrahydropyrido[3,4-d]pyrimidine], the remaining activity at 10 µM (P2X7, Table 2, 10 μM compound) stood at 5%. In addition, the “PBMC 10 μM (% control)” value (10 μM compound) came out at 5.0 % control.
As for `Cc1nc2c(c(-c3ccn[nH]3)n1)C[C@H](C)N(C(=O)c1cccc(C(F)(F)F)c1Cl)C2` (single isomer, unassigned) [Example 59, (6S*)-7-{[2-Chloro-3-(trifluoromethyl)phenyl]carbonyl}-2,6-dimethyl-4-(1H-pyrazol-5-yl)-5,6,7,8-tetrahydropyrido[3,4-d]pyrimidine], where the note is “P2X7, Table 2, 10 μM compound”, the remaining activity at 10 µM came out at 2.8%. Also, the “PBMC 10 μM (% control)” value (10 μM compound) is given as 2.8 % control.
In the case of `Cc1nc2c(c(-c3ccn(CCF)n3)n1)C[C@@H](C)N(C(=O)c1cccc(C(F)(F)F)c1Cl)C2` (single isomer, unassigned) [Example 124, (R*)-(2-chloro-3-(trifluoromethyl)phenyl)(4-(1-(2-fluoroethyl)-1H-pyrazol-3-yl)-2,6-dimethyl-5,6-dihydropyrido[3,4-d]pyrimidin-7(8H)-yl)methanone], for the setting “P2X7, Table 2, 10 μM compound”, the remaining activity at 10 µM worked out at 18.6%.
As to `C[C@@H]1c2ncnc(-c3ccn[nH]3)c2CCN1C(=O)c1ccc(Cl)c(F)c1Cl` (single isomer, unassigned) [Example 122, (R*)-(2,4-dichloro-3-fluorophenyl)(8-methyl-4-(1H-pyrazol-5-yl)-5,6-dihydropyrido[3,4-d]pyrimidin-7(8H)-yl)methanone], for the setting “P2X7, Table 2, 10 μM compound”, the remaining activity at 10 µM was found to be 4.1%. Also, the “PBMC 10 μM (% control)” value (10 μM compound) turned out to be 4.1 % control.
On to `Cc1nc2c(c(-c3ccn[nH]3)n1)C[C@@H](C)N(C(=O)c1ccc(Cl)cc1Cl)C2` (single isomer, unassigned) [Example 84, (R*)-(2,4-dichlorophenyl)(2,6-dimethyl-4-(1H-pyrazol-5-yl)-5,6-dihydropyrido[3,4-d]pyrimidin-7(8H)-yl)methanone], for which, under “P2X7, Table 2, 10 μM compound”, the remaining activity at 10 µM was found to be 7.5%. Under “10 μM compound”, the “PBMC 10 μM (% control)” value was 7.5 % control.
For `COCCn1ccc(-c2nc(C)nc3c2C[C@@H](C)N(C(=O)c2cccc(C(F)(F)F)c2Cl)C3)n1` (single isomer, unassigned) [Example 128, (R*)-(2-chloro-3-(trifluoromethyl)phenyl)(4-(1-(2-methoxyethyl)-1H-pyrazol-3-yl)-2,6-dimethyl-5,6-dihydropyrido[3,4-d]pyrimidin-7(8H)-yl)methanone], the remaining activity at 10 µM (P2X7, Table 2, 10 μM compound) was 7.3%. In addition, the “PBMC 10 μM (% control)” value (10 μM compound) was 7.3 % control.
`Cc1nc2c(c(-c3ccn[nH]3)n1)C[C@H](C)N(C(=O)c1cccc(F)c1Cl)C2` (single isomer, unassigned) [Example 145, (S*)-(2-chloro-3-fluorophenyl)(2,6-dimethyl-4-(1H-pyrazol-5-yl)-5,6-dihydropyrido[3,4-d]pyrimidin-7(8H)-yl)methanone]: the remaining activity at 10 µM (P2X7, Table 3 (additional runs), 10 μM compound) was 67.4%.
Take `C[C@H]1c2ncnc(-c3ccn[nH]3)c2CCN1C(=O)c1ccc(F)c(Cl)c1Cl` (single isomer, unassigned) [Example 120, (S*)-(2,3-dichloro-4-fluorophenyl)(8-methyl-4-(1H-pyrazol-5-yl)-5,6-dihydropyrido[3,4-d]pyrimidin-7(8H)-yl)methanone]: the remaining activity at 10 µM (P2X7, Table 2, 10 μM compound) came to 2.9%. The “PBMC 10 μM (% control)” value (10 μM compound) was 2.9 % control.
For the compound `Cc1nc2c(c(-c3ccn[nH]3)n1)C[C@H](C)N(C(=O)c1ccc(F)cc1Cl)C2` (single isomer, unassigned) [Example 92, (S*)-(2-chloro-4-fluorophenyl)(2,6-dimethyl-4-(1H-pyrazol-5-yl)-5,6-dihydropyrido[3,4-d]pyrimidin-7(8H)-yl)methanone], for the setting “P2X7, Table 2, 10 μM compound”, the remaining activity at 10 µM amounted to 9.4%. Also, the “PBMC 10 μM (% control)” value (10 μM compound) came out at 9.4 % control.
With `Cc1nc2c(c(-c3ccn[nH]3)n1)C[C@@H](C)N(C(=O)c1cccc(C(F)(F)F)c1F)C2` (single isomer, unassigned) [Example 75, (R*)-(2,6-dimethyl-4-(1H-pyrazol-5-yl)-5,6-dihydropyrido[3,4-d]pyrimidin-7(8H)-yl)(2-fluoro-3-(trifluoromethyl)phenyl)methanone], where the note is “P2X7, Table 2, 10 μM compound”, the remaining activity at 10 µM came out at 2.4%. For the same compound, the “PBMC 10 μM (% control)” value (10 μM compound) is 2.4 % control.
As for `CCc1nc2c(c(-c3ccn[nH]3)n1)C[C@H](C)N(C(=O)c1cccc(C(F)(F)F)c1Cl)C2` (single isomer, unassigned) [Example 100, (S*)-(2-chloro-3-(trifluoromethyl)phenyl)(2-ethyl-6-methyl-4-(1H-pyrazol-5-yl)-5,6-dihydropyrido[3,4-d]pyrimidin-7(8H)-yl)methanone], the remaining activity at 10 µM (P2X7, Table 2, 10 μM compound) was 4%. Besides, the “PBMC 10 μM (% control)” value (10 μM compound) is recorded as 4.0 % control.
On the same counts, the results for `Cc1nc2c(c(-c3ccn[nH]3)n1)C[C@@H](C)N(C(=O)c1ccc(F)c(C(F)(F)F)c1Cl)C2` (single isomer, unassigned) [Example 66, (R*)-(2-chloro-4-fluoro-3-(trifluoromethyl)phenyl)(2,6-dimethyl-4-(1H-pyrazol-5-yl)-5,6-dihydropyrido[3,4-d]pyrimidin-7(8H)-yl)methanone] are -6.1% and −6.1 % control.
Consider `Cc1nc2c(c(-c3ccn[nH]3)n1)C[C@@H](C)N(C(=O)c1ccc(F)cc1F)C2` (single isomer, unassigned) [Example 94, (R*)-(2,4-difluorophenyl)(2,6-dimethyl-4-(1H-pyrazol-5-yl)-5,6-dihydropyrido[3,4-d]pyrimidin-7(8H)-yl)methanone], for which, where the note is “P2X7, Table 2, 10 μM compound”, the remaining activity at 10 µM is 71.8%.
`Cc1nc2c(c(-c3ccn[nH]3)n1)C[C@H](C)N(C(=O)c1cccc(Cl)c1Cl)C2` (single isomer, unassigned) [Example 69, (S*)-(2,3-dichlorophenyl)(2,6-dimethyl-4-(1H-pyrazol-5-yl)-5,6-dihydropyrido[3,4-d]pyrimidin-7(8H)-yl)methanone]: for the setting “P2X7, Table 2, 10 μM compound”, the remaining activity at 10 µM is -6.2%. Under “10 μM compound”, the “PBMC 10 μM (% control)” value is on record as −6.2 % control.
On the same counts, the results for `Cc1nc2c(c(-c3ccn[nH]3)n1)C[C@H](C)N(C(=O)c1ccc(F)c(C(F)(F)F)c1Cl)C2` (single isomer, unassigned) [Example 65, (S*)-(2-chloro-4-fluoro-3-(trifluoromethyl)phenyl)(2,6-dimethyl-4-(1H-pyrazol-5-yl)-5,6-dihydropyrido[3,4-d]pyrimidin-7(8H)-yl)methanone] are 3.9% and 3.9 % control.
Regarding `Cc1nc2c(c(-c3ccn[nH]3)n1)C[C@@H](C)N(C(=O)c1ccc(Cl)cc1F)C2` (single isomer, unassigned) [Example 88, (R*)-(4-chloro-2-fluorophenyl)(2,6-dimethyl-4-(1H-pyrazol-5-yl)-5,6-dihydropyrido[3,4-d]pyrimidin-7(8H)-yl)methanone], the remaining activity at 10 µM (P2X7, Table 2, 10 μM compound) worked out at 49.4%.
Take `C[C@@H]1c2ncnc(-c3ccn[nH]3)c2CCN1C(=O)c1ccc(F)c(Cl)c1Cl` (single isomer, unassigned) [Example 119, (R*)-(2,3-dichloro-4-fluorophenyl)(8-methyl-4-(1H-pyrazol-5-yl)-5,6-dihydropyrido[3,4-d]pyrimidin-7(8H)-yl)methanone]: the remaining activity at 10 µM (P2X7, Table 2, 10 μM compound) is -1.5%. For the same compound, the “PBMC 10 μM (% control)” value (10 μM compound) is −1.5 % control.
As to `COCCn1ccc(-c2nc(C)nc3c2C[C@H](C)N(C(=O)c2cccc(C(F)(F)F)c2Cl)C3)n1` (single isomer, unassigned) [Example 127, (S*)-(2-chloro-3-(trifluoromethyl)phenyl)(4-(1-(2-methoxyethyl)-1H-pyrazol-3-yl)-2,6-dimethyl-5,6-dihydropyrido[3,4-d]pyrimidin-7(8H)-yl)methanone], the remaining activity at 10 µM (P2X7, Table 2, 10 μM compound) worked out at 38.2%.
As for `Cc1nc2c(c(-c3ccn[nH]3)n1)C[C@@H](C)N(C(=O)c1ccc(Cl)c(F)c1Cl)C2` [Example 71, (R)-(2,4-dichloro-3-fluorophenyl)(2,6-dimethyl-4-(1H-pyrazol-5-yl)-5,6-dihydropyrido[3,4-d]pyrimidin-7(8H)-yl)methanone], the remaining activity at 10 µM (P2X7, Table 2, 10 μM compound) was -4.1%. Besides, the “PBMC 10 μM (% control)” value (10 μM compound) is given as −4.1 % control.
As to `CCc1nc2c(c(-c3ccn[nH]3)n1)C[C@@H](C)N(C(=O)c1cccc(C(F)(F)F)c1Cl)C2` (single isomer, unassigned) [Example 99, (R*)-(2-chloro-3-(trifluoromethyl)phenyl)(2-ethyl-6-methyl-4-(1H-pyrazol-5-yl)-5,6-dihydropyrido[3,4-d]pyrimidin-7(8H)-yl)methanone], under “P2X7, Table 2, 10 μM compound”, the remaining activity at 10 µM came to 16.4%.
For `Cc1nc2c(c(-c3ccn[nH]3)n1)C[C@H](C)N(C(=O)c1ccc(F)c(Cl)c1Cl)C2` (single isomer, unassigned) [Example 82, (S*)-(2,3-dichloro-4-fluorophenyl)(2,6-dimethyl-4-(1H-pyrazol-5-yl)-5,6-dihydropyrido[3,4-d]pyrimidin-7(8H)-yl)methanone], the remaining activity at 10 µM (P2X7, Table 2, 10 μM compound) is -1%. Moreover, the “PBMC 10 μM (% control)” value (10 μM compound) is −1.0 % control.
On the same counts, the results for `CC(C)c1nc2c(c(-c3ccn[nH]3)n1)C[C@H](C)N(C(=O)c1cccc(C(F)(F)F)c1Cl)C2` (single isomer, unassigned) [Example 103, (S*)-(2-chloro-3-(trifluoromethyl)phenyl)(2-isopropyl-6-methyl-4-(1H-pyrazol-5-yl)-5,6-dihydropyrido[3,4-d]pyrimidin-7(8H)-yl)methanone] are 6.3% and 6.3 % control.
